Test results reported in patent US6413938B1, “Benzimidazole derivatives for the treatment of viral infections” (The Regents of the University of Michigan, priority 1997, dated 2002).

Test system: not given
Assay: not given
Conditions: not given

SMILES | melting point
C[C@H]1O[C@@H](n2c(Br)nc3cc(Cl)c(Cl)cc32)[C@H](O)[C@@H]1O (hydrate or solvate) [Example 4, 2-Bromo-5,6-dichloro-1-(5-deoxy-beta-D-ribofuranosyl)-1H-benzimidazole] | 133 to 135 °C
CC(C)Nc1nc2c(F)c(F)c(F)cc2n1[C@@H]1O[C@H](C)[C@@H](O)[C@H]1O [Example 19, 4,5,6-Trifluoro-1-(5-deoxy-beta-D-ribofuranosyl)-N-(1-methylethyl)-1H-benzimidazol-2-amine] | 148 to 151 °C

More lines, now with the values ahead:

melting point | SMILES
175 to 178 °C | CC(C)Nc1nc2cc(F)c(F)c(F)c2n1[C@@H]1O[C@H](C)[C@@H](O)[C@H]1O [Example 20, 5,6,7-Trifluoro-1-(5-deoxy-beta-D-ribofuranosyl)-N-(1-methylethyl)1H-benzimidazol-2-amine]
126 to 127 °C | CC(=O)O[C@@H]1[C@H](OC(C)=O)[C@@H](C)O[C@H]1n1c(Cl)nc2c(Cl)c(Cl)c(Cl)cc21 [Example 68, 2,4,5,6-Tetrachloro-1-(2,3-di-O-acetyl-5-deoxy-beta-D-ribofuranosyl)-1H-benzimidazole]
160 to 162 °C | CC(=O)O[C@@H]1[C@H](OC(C)=O)[C@@H](C)O[C@H]1n1c(Br)nc2c(Cl)c(Cl)c(Cl)cc21 [Example 69, 2-Bromo4,5,6-trichloro-1-(2,3-di-O-acetyl-5-deoxy-beta-D-ribofuranosyl)-1H-benzimidazole]
138 to 141 °C | CC(=O)O[C@@H]1[C@H](OC(C)=O)[C@@H](C)O[C@H]1n1c(Cl)nc2c(Br)c(Cl)c(Cl)cc21 [Example 70, 4-Bromo-2,5,6-trichloro-1-(2,3-di-O-acetyl-5-deoxy-beta-D-ribofuranosyl)-1H-benzimidazole]
152 to 154 °C | CC(=O)O[C@@H]1[C@H](OC(C)=O)[C@@H](C)O[C@H]1n1c(Br)nc2c(Br)c(Cl)c(Cl)cc21 [Example 71, 2,4-Dibromo-5,6-dichloro-1-(2,3-di-O-acetyl-5-deoxy-beta-D-ribofuranosyl)-1H-benzimidazole]
120 to 122 °C | C[C@H]1O[C@H](n2c(Cl)nc3cc(Cl)c(Cl)cc32)[C@@H](O)[C@H]1O [Example 72, 2,5,6-Trichloro-1-(5-deoxy-α-D-lyxofuranosyl)1H-benzimidazole]
145 to 148 °C | C[C@H]1O[C@@H](n2c(Br)nc3cc(Cl)c(Cl)cc32)[C@H](O)[C@@H]1O [Example 73, 2-Bromo-5,6-dichloro-1-(5-deoxy-β-D-ribofuranosyl)benzimidazole]

Test system: HCMV strain AD169
Assay: Human Cytomegalovirus Assay
Assay type: cell-based
Conditions: Human betaherpesvirus 5, 120 h; HCMV strain AD169 on MRC5 cell monolayers, 5 days, HCMV DNA by blotting and hybridization
Description: HCMV strain AD169 was grown on monolayers of human embryonic lung cells (MRC5 cells) in 96 well plates. After infection of the cells at a ratio of approximately 0.01 infectious virus particles per cell; the compounds to be tested were added to selected wells at six different concentrations, each in triplicate. The same concentrations of compounds were also applied to wells containing monolayers of uninfected cells in order to assess compound cytotoxicity. The plates were incubated for 5 days, and the minimum cytotoxic dose was estimated from microscopic examination. The IC50 for antiviral effect was estimated from measurements of HCMV DNA in each well by blotting and quantitative specific DNA hybridization, similar to the method of Gadler (Antimicrob. Agents Chemother. 1983, 24, 370-374).

SMILES | IC50
CC(C)Nc1nc2c(Cl)cc(Cl)cc2n1[C@@H]1O[C@H](C)[C@@H](O)[C@H]1O [Example 9, 4,6-Dichloro-1-(5-deoxy-beta-D-ribofuranosyl)-N-(1-methylethyl)-1H-benzimidazol-2-amine] | 6.9 µM
CC(C)Nc1nc2c(Cl)c(Cl)ccc2n1[C@@H]1O[C@H](C)[C@@H](O)[C@H]1O [Example 12, 4,5-Dichloro-1-(5deoxy-beta-D-ribofuranosyl)-N-(1-methylethyl)-1H-benzimidazol-2-amine] | 3.5 µM
CC(C)Nc1nc2cc(C(F)(F)F)ccc2n1[C@@H]1O[C@H](C)[C@@H](O)[C@H]1O [Example 44, 5-Trifluoromethyl-1-(5-Deoxy-beta-D-ribofuranosyl)-N-(1-methylethyl)-1H-benzimidazol-2-amine] | 7 µM
CC(C)Nc1nc2ccc(C(F)(F)F)cc2n1[C@@H]1O[C@H](C)[C@@H](O)[C@H]1O [Example 46, 6-trifluoromethyl-1-(5-Deoxy-beta-D-ribofuranosyl)-N-(1-methylethyl)-1H-benzimidazol-2-amine] | 6.1 µM
CC(C)Nc1nc2ccc(Cl)cc2n1[C@@H]1O[C@H](C)[C@@H](O)[C@H]1O [Example 50, 6-Chloro-1-(5-deoxy-β-D-ribofuranosyl)-N-(1-methylethyl)-1H-benzimidazol-2-amine] | 7 µM
C[C@H]1O[C@@H](n2c(NC3CC3)nc3cc(Cl)c(Cl)cc32)[C@H](O)[C@@H]1O [Example 59, 5,6-Dichloro-1-(5-deoxy-beta-D-ribofuranosyl)-N-(cyclopropyl)-1H-benzimidazol-2-amine] | 1.1 µM
